Legend:
[1] = system: TAC-induced heart hypertrophy; test: Reversal of heart hypertrophy, TAC model (Experimental Example 2); type: in vivo, C57BL/6J male mice; settings: 150 mg/kg for 4 weeks, starting 2 weeks after TAC
Description: (§1) 8-week-old C57BL/6J male mice (n=40, 20-23 g, SLC, Japan) were purchased and subjected to transverse aortic constriction (TAC).
(§2) The thorax was incised and the thymus was removed.
(§3) 5 weeks after the operation of TAC for the heart failure model, a difference of a fractional shortening (F.S) value (%) with the control group was confirmed using echocardiogram, and the degree of heart failure induction and therapeutic effects were then determined.
(§4) Further, left ventricular end-diastolic and systolic diameters were measured according to the standard method of the American Society for Echocardiography. Fractional shortening (%) which is an indicator of the ventricular contractility is calculated according to the following equation.
(§5) F.S=(left ventricular end-diastolic diameter)−(left ventricular end-systolic diameter)/left ventricular end-diastolic diameter
(§6) In order to measure effects of MB660 on the reversal of heart hypertrophy and heart failure, the experiment was carried out as follows.
(§7) After induction of heart hypertrophy (2 weeks after TAC treatment) and heart failure (5 weeks after TAC treatment), animals were given test samples for 4 weeks.

[2] = system: TAC-induced heart failure; test: Inhibitory effect on heart failure, TAC model (Experimental Example 1); type: in vivo, C57BL/6J male mice
Description: as §1, §2, §3, §4, §5
(§8) Among compounds of Formula 1, inhibitory effects of 7,8-dihydro-2,2-dimethyl-2H-naphtho(2,3-b)dihydropyran-7,8-dione (hereinafter, referred to as “MB660”) on heart hypertrophy and heart failure were examined.
(§9) 2 days after TAC treatment, animals were given test samples. Induction of heart hypertrophy was carried out over 2 weeks after TAC treatment. Induction of heart failure was carried out over 5 weeks after TAC treatment.

[3] = system: TAC-induced heart failure; test: Reversal of heart failure, TAC model (Experimental Example 2); type: in vivo, C57BL/6J male mice; settings: 150 mg/kg for 4 weeks, starting 5 weeks after TAC
Description: as §1, §2, §3, §4, §5, §6, §7

[4] = system: cardiomyocytic mitochondria, TAC-induced heart hypertrophy; test: Mitochondrial changes of cardiomyocytes in heart hypertrophy model (Experimental Example 5); type: in vivo, C57BL/6J mice; settings: orally for 4 weeks after induction of heart hypertrophy (2 weeks after TAC), transmission electron microscope, FIG. 16
Description: (§10) Animals were orally given test samples for 4 weeks after induction of heart hypertrophy (2 weeks after TAC treatment) and heart failure (5 weeks after TAC treatment). The left ventricular myocardial tissues of animals were fixed in 2.5% glutaraldehyde to prepare tissue sections, and mitochondrial morphological changes were examined under a transmission electron microscope.
(§11) In C57BL/6J mice with TAC-induced heart hypertrophy and heart failure, alterations in cardiomyocytic mitochondria in response to the administration of MB660 were observed.

[5] = system: TAC-induced heart hypertrophy; settings: FIG. 14
Description: For the operation of TAC, C57BL/6 male mice were anesthetized with an intraperitoneal injection of a liquid anesthetic (ketamine:xylazine=20:1, kg/ml), and a 22-gauge IV catheter needle was placed into the trachea, followed by connection with a ventilator (Harvard Apparatus) for artificial forcible respiration. The thorax was incised and the thymus was removed. Following the removal of the thymus, the transverse aorta between the right subclavian artery and the left subclavian artery was banded (7-0, silk) with an overlaying blunted 27-gauge needle, and then the needle was quickly removed to create a defined constriction. The thorax was sutured with (5-0) silk to complete the surgery, and respiration of animals was then confirmed.
A ratio of heart weight (HW) to body weight (BW) (HW/BW ratio) and a ratio of heart weight (HW) to tibia length (HW/TL ratio) were respectively estimated using echocardiogram.
2 days after the operation of TAC, animals were orally given test samples for 2 weeks.

[6] = system: cardiomyocytic mitochondria, TAC-induced heart failure; test: Mitochondrial changes of cardiomyocytes in heart failure model (Experimental Example 5); type: in vivo, C57BL/6J mice; settings: orally for 4 weeks after induction of heart failure (5 weeks after TAC), transmission electron microscope, FIG. 17
Description: as §10, §11

[7] = system: TAC-induced heart hypertrophy; test: Inhibitory effect on heart hypertrophy, TAC model (Experimental Example 1); type: in vivo, C57BL/6J male mice
Description: as §1, §2, §3, §4, §5, §8, §9

[8] = system: TAC-induced heart hypertrophy; test: Changes of heart size in heart hypertrophy model (Experimental Example 4); type: in vivo, C57BL/6J male mice; settings: 150 mg/kg orally for two weeks from one week after TAC, heart excised three weeks after TAC, FIG. 15
Description: as §2
In order to examine changes of heart size in response to the administration of MB660, experimental animals were divided into four groups as given in Table 4 below:
One week after TAC treatment, animals were orally given MB660 for two weeks. Three weeks after TAC treatment, animals were sacrificed and the heart was excised, followed by size examination.

Question: Which results are given for `CC1(C)CCc2cc3c(cc2O1)=CC(=O)C(=O)C=3` [MB660, 7,8-dihydro-2,2-dimethyl-2H-naphtho(2,3-b)dihydropyran-7,8-dione]?
Answer: HW/BW lower than the non-MB660 treated group ([1]; FIG. 7): ≥ 30%; HW/BW value ([1]; FIG. 7): 6.23; HW/TL lower than the non-MB660 treated group ([1]; FIG. 8): about 25%; HW/TL value ([1]; FIG. 8): 7.68; fractional shortening vs non-MB660 treated group ([1]; FIG. 9): significant increase; HW/BW ratio vs non-MB660 treated group ([2]; TAC MB(+), 150 mg/kg, given from 2 days after TAC, heart failure induced over 5 weeks, FIG. 4): significantly low values; HW/TL ratio vs non-MB660 treated group ([2]; TAC MB(+), 150 mg/kg, given from 2 days after TAC, heart failure induced over 5 weeks, FIG. 5): significantly low values; fractional shortening vs non-MB660 treated group ([2]; echocardiogram, heart failure-induced model): significantly increased; HW/BW ratio vs control group ([3]; FIG. 10): low values; HW/TL ratio vs control group ([3]; FIG. 11): low values; fractional shortening vs control group ([3]; FIG. 12): significant increase; mitochondrial function/morphology of cardiomyocytes [4]: returned to the original condition; HW/BW ratio vs control group (TAC) ([5]; 30, 60, 100, 150 mg/kg orally for 2 weeks from 2 days after TAC): significant decrease; HW/BW ratio, dependence on dose ([5]; 30 to 150 mg/kg orally for 2 weeks): generally decreased with an increasing dose; HW/BW ratio at 60 mg compared to the group with 30 mg ([5]; orally for 2 weeks): increased; mitochondrial function/morphology of cardiomyocytes [6]: returned to the original condition; HW/BW ratio vs non-MB660 treated TAC group ([7]; TAC MB(+), 150 mg/kg, given from 2 days after TAC, hypertrophy induced over 2 weeks, FIG. 1): significantly low value of heart hypertrophy; HW/TL ratio vs non-MB660 treated TAC group ([7]; TAC MB(+), 150 mg/kg, given from 2 days after TAC, hypertrophy induced over 2 weeks, FIG. 2): significantly low value of heart hypertrophy; fractional shortening vs non-MB660 treated group ([7]; echocardiogram, heart hypertrophy-induced model, FIG. 3): significant increase; heart size, TAC group vs non-administered TAC control [8]: significant decrease of the heart size
